PubChem BioAssay AID2060907 (Molecular Pharmacology Branch, DTP, NCI, 2025)
Several values for one entry are separate records, joined by “and”; a condition that tells them apart may be missing. Equal values may be shown once.

Tested on: 388556-164-R-J1-PDC complex spheroid viability
Assay: Anticancer human tumor 388556-164-R-J1-PDC patient-derived colon adenocarcinoma cell line growth inhibition [RAS]
Details: for viability, T/C: stronger effect = lower value; active = viability on the fitted dose curve at most 10% of control; inactive = the rest
From the text: RAS pathway inhibitors in Combinations in Complex Spheroids
A high-throughput screen of multi-cell type tumor spheroids was designed to identify active combinations of RAS pathway inhibitors and targeted small molecules. Complex spheroids include a stromal component modeled by human endothelial cells (HUVEC) and fibroblasts modeled by human mesenchymal stem cells (MSCs). The concentration ranges selected for each drug and investigational agent were based upon clinically achievable concentrations if the clinical Cmax of the agent was known.
Compounds. The drugs and investigational agents: abemaciclib (NSC768073), cobimetinib (NSC768068), divarasib (GDC6063, NSC841802), docetaxel (NSC628503), GDC-1971 (RLY-1971, NSC841576), gemcitabine (NSC613327), inavolisib (NSC800729), ipatasertib (NSC767898), KB-0742 (NSC834161), MRTX-1133 (NSC836407), osimertinib (NSC779217), RMC-4630 (NSC839698), RMC-6236 (NSC851965), RMC-6291 (NSC852671), Ro-3306 (NSC812927), sapanisertib (NSC764658), SN-38 (NSC673596), staurosporine (NSC755774), SY5609 (NSC837396), and tovorafenib (DAY101, NSC766906), were obtained from the National Cancer Institute (NCI) Developmental Therapeutics Program Chemical Repository. The FDA-approved anticancer drug set is available from the NCI Developmental Therapeutics Program. […] The stock solutions were prepared in dimethyl sulfoxide (DMSO, Sigma-Aldrich, St. Louis, MO, cat. D2650) at 800-fold the tested concentration and stored at -70 degrees C prior to their use. All drugs and investigational agents were tested over a range starting from a high concentration at or near the clinical Cmax and decreasing in half-log increments. If the clinical Cmax for an agent had not been determined, the highest concentration tested was 10 microM.
Cell Culture. All cells were maintained in an incubator at 37 degrees C and 5% CO2 with 95% humidity. The PDC lines were cultured according to standard operating procedures established by the NCI PDMR. All PDCs were thawed and cultured in Matrigel-coated flasks prepared with a working solution of 1X Ham's F-12 nutrient mix, without supplementation (Invitrogen, Waltham, MA, cat. 11765054), 100 U/mL penicillin-streptomycin (Invitrogen, cat. 15140122), and 2.5% Matrigel (Corning Inc., Corning, NY, cat. 354248) for the first three passages. The 362531-283-R-J2-PDC and 782815-120-R-J1-PDC lines were cultured in 6C/Colon 1B media, which includes advanced DMEM/F-12 (Thermo Fisher Scientific, cat. 12634028), 10 mM HEPES (Thermo Fisher Scientific, cat. 15630080), 1X GlutaMAX supplement (Thermo Fisher Scientific, cat. 35050061), 0.1 mg/mL primocin (InvivoGen, San Diego, CA, cat. ant-pm-2), 10% defined fetal bovine serum, heat inactivated (HyClone Laboratories Inc., Logan, UT, cat. SH30070.03HI), 50% L-WRN conditioned media (ATCC, cat. CRL-3276), 1.25 mM N-Acetyl-L-cysteine (Sigma-Aldrich, cat. A9165), 10 mM nicotinamide (Sigma-Aldrich, cat. N0636), 1X B-27 supplement (Thermo Fisher Scientific, cat. 17504044), 1X N-2 supplement (Thermo Fisher Scientific, cat. 17502048), 50 ng/mL human EGF (Thermo Fisher Scientific, cat. PHG0311), and 10 microM Y-27632 dihydrochloride (Tocris Bioscience, cat. 1254). The K12877-001-R-J1-PDC line was cultured in 6I media, which includes all 6C/Colon 1B media plus 10 ng/mL human FGF-10 (PeproTech, cat. 100-26), 1 ng/mL human FGF-2 (PeproTech, cat. 100-18B), 1 µM prostaglandin E2 (Tocris Bioscience, cat. 2296), […] hydrocortisone (Sigma-Aldrich, cat. H4001), and […] bovine insulin (Sigma-Aldrich, cat. I6634). The K86415-001-R-J1-PDC line was cultured in 6D media, which includes all 6C/Colon 1B media components minus the L-WRN conditioned media. The 485176-168-R4-J1-PDC was cultured in PANC media, which includes all 6C/Colon 1B media plus 100 ng/mL human FGF-10 (PeproTech, cat. 100-26), 500 nM SB-431542 (Selleckchem, cat. S1067), and 10 nM gastrin (Tocris Bioscience, cat. 3006). […]

[1] = curve of first compound, second compound 0.0316 µM
[2] = curve of first compound, second compound 0.1 µM
[3] = curve of first compound, second compound 0.316 µM
[4] = curve of first compound, second compound 1 µM
[5] = curve of first compound, second compound 3.16 µM
[6] = curve of first compound, second compound 10 µM
[7] = second compound 0.0316 µM, first compound 0.00316 µM
[8] = second compound 0.0316 µM, first compound 0.01 µM
[9] = second compound 0.0316 µM, first compound 0.0316 µM
[10] = second compound 0.0316 µM, first compound 0.1 µM
[11] = second compound 0.0316 µM, first compound 0.316 µM
[12] = second compound 0.0316 µM, first compound 1 µM
[13] = second compound 0.1 µM, first compound 0.00316 µM
[14] = second compound 0.1 µM, first compound 0.01 µM
[15] = second compound 0.1 µM, first compound 0.0316 µM
[16] = second compound 0.1 µM, first compound 0.1 µM
[17] = second compound 0.1 µM, first compound 0.316 µM
[18] = second compound 0.1 µM, first compound 1 µM
[19] = second compound 0.316 µM, first compound 0.00316 µM
[20] = second compound 0.316 µM, first compound 0.01 µM
[21] = second compound 0.316 µM, first compound 0.0316 µM
[22] = second compound 0.316 µM, first compound 0.1 µM
[23] = second compound 0.316 µM, first compound 0.316 µM
[24] = second compound 0.316 µM, first compound 1 µM
[25] = second compound 1 µM, first compound 0.00316 µM
[26] = second compound 1 µM, first compound 0.01 µM
[27] = second compound 1 µM, first compound 0.0316 µM
[28] = second compound 1 µM, first compound 0.1 µM
[29] = second compound 1 µM, first compound 0.316 µM
[30] = second compound 1 µM, first compound 1 µM
[31] = second compound 3.16 µM, first compound 0.00316 µM
[32] = second compound 3.16 µM, first compound 0.01 µM
[33] = second compound 3.16 µM, first compound 0.0316 µM
[34] = second compound 3.16 µM, first compound 0.1 µM
[35] = second compound 3.16 µM, first compound 0.316 µM
[36] = second compound 3.16 µM, first compound 1 µM
[37] = second compound 10 µM, first compound 0.00316 µM
[38] = second compound 10 µM, first compound 0.01 µM
[39] = second compound 10 µM, first compound 0.0316 µM
[40] = second compound 10 µM, first compound 0.1 µM
[41] = second compound 10 µM, first compound 0.316 µM
[42] = second compound 10 µM, first compound 1 µM
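Note: spheroids exposed to compound for 7 days before readout.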
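Throughout, for viability, T/C: 100% = DMSO vehicle control luminescence.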

CC(C)NCC(C(=O)N1CCN(c2ncnc3c2C(C)CC3O)CC1)c1ccc(Cl)cc1 (stereo not given)
> 10000 nM: IC50 (curve of compound)
inactive: viability, T/C (compound 0.1 µM) 108% [middle of 4 runs] | viability, T/C (compound 0.316 µM) 119% and 102% (3×) | viability, T/C (compound 1 µM) 100% [middle of 4 runs] | viability, T/C (compound 3.16 µM) 100% [middle of 4 runs] | viability, T/C (compound 10 µM) 103% [middle of 4 runs]

Cc1nc(N2CCC3(CC2)COC(C)C3N)c(CO)nc1Sc1ccnc(N)c1Cl (stereo not given)
inactive: viability, T/C (compound 0.1 µM) 81.2% [middle of 4 runs] | viability, T/C (compound 0.316 µM) 70.5% [middle of 4 runs] | viability, T/C (compound 1 µM) 62.4% [middle of 4 runs] | viability, T/C (compound 3.16 µM) 53.9% [middle of 4 runs] | viability, T/C (compound 10 µM) 46.1% [middle of 4 runs]

C=CC(=O)Nc1cc(Nc2nccc(-c3cn(C)c4ccccc34)n2)c(OC)cc1N(C)CCN(C)C + C#Cc1c(F)ccc2cc(O)cc(-c3ncc4c(N5CC6CCC(C5)N6)nc(OCC56CCCN5CC(F)C6)nc4c3F)c12
765 nM: IC50 [3]
125 nM: IC50 [6]
287 nM: IC50 [5]
401 nM: IC50 [4]
> 1000 nM: IC50 [1] | IC50 [2]
inactive: viability, T/C [7] 114% | viability, T/C [8] 98.3% | viability, T/C [9] 111% | viability, T/C [10] 92.2% | viability, T/C [11] 78.9% | viability, T/C [12] 57.1% | viability, T/C [13] 110% | viability, T/C [14] 98% | viability, T/C [15] 105% | viability, T/C [16] 94.5% | viability, T/C [17] 74.5% | viability, T/C [18] 57.8% | viability, T/C [19] 98.4% | viability, T/C [20] 103% | viability, T/C [21] 80.7% | viability, T/C [22] 92% | viability, T/C [23] 72.8% | viability, T/C [24] 42.5% | viability, T/C [25] 91.2% | viability, T/C [26] 99.6% | viability, T/C [27] 60.5% | viability, T/C [28] 73.7% | viability, T/C [29] 61.1% | viability, T/C [30] 29.8% | viability, T/C [31] 90.2% | viability, T/C [32] 70.8% | viability, T/C [33] 87.3% | viability, T/C [34] 69% | viability, T/C [35] 48.5% | viability, T/C [36] 19.8% | viability, T/C [37] 67.4% | viability, T/C [38] 81.5% | viability, T/C [39] 64.1% | viability, T/C [40] 56.2% | viability, T/C [41] 30.8% | viability, T/C [42] 24.6%

O=C(c1ccc(F)c(F)c1Nc1ccc(I)cc1F)N1CC(O)([C@@H]2CCCCN2)C1 + C#Cc1c(F)ccc2cc(O)cc(-c3ncc4c(N5CC6CCC(C5)N6)nc(OCC56CCCN5CC(F)C6)nc4c3F)c12
inactive: viability, T/C [7] 100% | viability, T/C [8] 95.1% | viability, T/C [9] 79% | viability, T/C [10] 61.6% | viability, T/C [11] 37.2% | viability, T/C [12] 22.1% | viability, T/C [13] 99.7% | viability, T/C [14] 103% | viability, T/C [15] 86% | viability, T/C [16] 66.1% | viability, T/C [17] 39.2% | viability, T/C [18] 22.2% | viability, T/C [19] 100% | viability, T/C [20] 99.4% | viability, T/C [21] 64.3% | viability, T/C [22] 59.3% | viability, T/C [23] 35.9% | viability, T/C [24] 17.2% | viability, T/C [25] 89.8% | viability, T/C [26] 81.8% | viability, T/C [27] 55.4% | viability, T/C [28] 60.5% | viability, T/C [29] 31.6% | viability, T/C [30] 16.9% | viability, T/C [31] 79% | viability, T/C [32] 62.9% | viability, T/C [33] 61.8% | viability, T/C [34] 51.5% | viability, T/C [35] 32.2% | viability, T/C [36] 15.7% | viability, T/C [37] 56.7% | viability, T/C [38] 62.1% | viability, T/C [39] 45.3% | viability, T/C [40] 31% | viability, T/C [41] 19.1% | viability, T/C [42] 17.1%
196 nM: IC50 [2]
104 nM: IC50 [4]
84.8 nM: IC50 [5]
24.1 nM: IC50 [6]
170 nM: IC50 [1]
135 nM: IC50 [3]
